No end group written: not given here.
Tests used:
[1] = tested on: PC12 cells co-cultured with BV2 cells; assay: Co-culture of Aβ42-activated BV2 cells and PC12 cells, MTT assay; conditions: 100 μM peptide, 48 hours, 5 uM Aβ42
Method: For the co-culture of microglia and PC12 cells, which has been employed to assess the neurotoxin effect of activated microglia, microglia was first seeded onto cell culture inserts (pore size of 0.2 μm; SPL, Korea). After overnight incubation, microglia were left untreated or exposed 5 uM Aβ42 in the presence or absence of peptides for 24 h. Afterwards, the microglial cells were co-cultured with PC12 cells by transferring the culture inserts containing microglia onto PC12 cell monolayers (see FIG. 15).
In order to confirm cell viability of co-cultured PC12 cell, MTT assay was performed.

[2] = tested on: BV2 cells, murine microglia; assay: Cytotoxicity, MTT assay in BV2 cells; format: cell-based; conditions: for cytotoxicity in BV2 cell: 10, 50, 100 μM, 24 and 48 hours
Method: Cytoprotective effect was determined by MTT reduction assay. […] After incubations for 24 hours and 48 hours, the incubated cells were washed with PBS, 100 μl of MTT (0.5 mg/ml final concentration) was added to each wells, and incubation was continued for another 4 hours for a reduction of MTT. […] Relative cell viability was calculated as a percentage compared with the absorbance of the untreated control group.

[3] = tested on: nerve cells-differentiated PC12 cells
Method: The present inventors induced a nerve toxin in PC12 cells by differentiating PC12 cells into nerve cells through treating with NGF, and then treating to the differentiated PC12 cells with 20 μM of Aβ42 for 24 hours.
Cytoprotective effect was determined by MTT reduction assay. […] After incubation for 24 hours, 100 μl of MTT (1 mg/ml final concentration) was added to each of wells and incubation was continued for another 4 hours. MTT is used as an indicator of cell viability through its mitochondrial reduction to formazan. Mitochondrial succinate dehydrogenase in live cells converts MTT into visible formazan crystals during incubation. The formazan crystals were then solubilized in DMSO and the absorbance was measured at 540 nm by using enzyme-linked immunosorbent assay (ELISA) microplate reader (Tecan GmbH, Austria). Relative cell viability was calculated compared with the absorbance of the untreated control group.

NO = NO production, Griess reaction in Aβ42-stimulated BV2 cells; format: cell-based, murine; conditions: stimulation with Aβ42 alone (control), 1 μM 48 h
Method: NO levels in the cultured BV2 cells' supernatants were measured by the Griess reaction. In brief, BV2 cells were pre incubated overnight in 24-well plates using DMEM without phenol red at a density 2×10^5 cells/ml, followed by the treatment with the HIP-1 peptide of the present invention having various concentrations (10, 50, 100 μM) as a sample for 6 h. After 6 h, the NO production was stimulated by adding Aβ42 (1 μM final concentration) and incubated for further 48 h. Then 50 μl of culture supernatants from each samples was mixed with the same volume of the Griess reagent [1% sulfanilamide/0.1% N-1-naphthyl]-ethylenediamine dihydrochloride/2.5% phosphoric acid] following the incubation for 15 min. Absorbance values were read at 540 nm using ELISA microplate reader (Tecan GmbH, Austria). Blank was not treated, and control was activated BV2 cells by exposing Aβ42 without the HIP-1 peptide of the present invention.

Substance	cell viability of PC12 cells co-cultured with BV2 cells [1]	cytotoxicity in BV2 cell [2]	cell viability of nerve cell-differentiated PC12 cells ([3]; 10 μM Aβ42, FIG. 2)	PC12 cell viability ([3]; 20 μM Aβ42 for 24 h)	production of NO (NO)	toxicity of Aβ42 in BV2 cells ([2]; Aβ42 0.1, 0.5, 1, 5, 10 μM)
FLHDVQ [HTP-2, FLHDVQ]	75.19±2.55%	did not exhibit cytotoxicity	–	–	–	–
GTEDELDK [HTP-1]	82.49±3.05%	did not exhibit cytotoxicity	–	–	–	–
amyloid-beta 42 [Aβ42]	–	–	greatly decreased	reduction	24.59 ± 2.54 µM	no toxicities

Reference: US20140094414A1, “COMPOSITION FOR PREVENTING OR TREATING NEURODEGENERATIVE DISEASE INCLUDING BIOACTIVE PEPTIDE AS EFFECTIVE COMPONENT” (PUKYONG NATIONAL UNIVERSITY INDUSTRY-UNIVERSITY CO, priority 2012, published 2014)
